We go through 49 sequences from patent US8354381B2, “Peptide compositions for oral care systems” (E I du Pont de Nemours and Company, priority 2009, dated 2013).

One test relates to pellicle coated bovine enamel. Briefly: Phage ELISA on pellicle coated bovine enamel (Example 6). It counts as binding, human. The conditions noted are these: 10^11 pfu phage, 30 min in vivo pellicle on bovine enamel, normalized to an internal control. On the procedure: A total of 29 selected phage candidates from Table 5 were used in phage ELISA Experiment to determine binding affinity and coverage of each phage on pellicle substrates. Purified phage lysates were used for binding to pellicle coated bovine enamel using an anti-M13 phage antibody conjugated to horseradish-peroxidase, followed by the addition of chromogenic agent TMB. The plates were read at A450 nm.
The wells were filled with 1 mL of 10^11 pfu purified phage stock which was prepared by diluting in blocking buffer. […] The non-binding phage was removed by washing 5 times with PBST. […] The conjugate solution was removed and was washed 3 times with PBST.
(In an ELISA, binding on a coated surface is turned into a signal by an enzyme label.)
For “ANELSTYAQTNPGSG (Synthetic oral-surface binding peptide) [DenP25]”, the “O.D.450 (normalized)” value amounted to 0.909.
The same measure, in the same setting: for “APPTYQTASYPHNLPSKRKM (Synthetic oral-surface binding peptide) [DenP28]” the value was 1.203.
Turning to “AVVPADLNDHANHLS (Synthetic oral-surface binding peptide) [DenP10]”, the “O.D.450 (normalized)” value is 1.619.
On to “DHNNRQHAVEVRENKTHTAR (Synthetic oral-surface binding peptide) [DenP21]”, for which the “O.D.450 (normalized)” value was determined as 0.728.
Still for that read-out and setting: under “DLGTFPNRTLKMAAH (Synthetic oral-surface binding peptide) [DenP11]” stands 1.663; under “DTIHPNKMKSPSSPL (Synthetic oral-surface binding peptide) [DenP26]”, 1.039.
For “EFPYYNDNPPNPERHTLR (Synthetic oral-surface binding peptide) [DenP7]”, the “O.D.450 (normalized)” value turned out to be 1.500.
Still for that read-out and setting: under “ELDHDSRHYMNGLQRKVT (Synthetic oral-surface binding peptide) [DenP15]” stands 1.112; under “FDGIGLGTATRHQNR (Synthetic oral-surface binding peptide) [DenP12]”, 2.079; under “GMPTRYYHNTPPHLTPKF (Synthetic oral-surface binding peptide) [DenP8]”, 1.182.
Still for that read-out and setting: for “GPQHVLMQDTHQGYAFDN (Synthetic oral-surface binding peptide) [DenP16]” the value was 2.190; for “HDPNHLTHQARTIYRNANHT (Synthetic oral-surface binding peptide) [DenP23]”, 1.236; for “HKNAIQPVNDATTLDTTM (Synthetic oral-surface binding peptide) [DenP9]”, 1.364.
Same read-out and setting: for “HKNENIMQYNVNDRWHITPA (Synthetic oral-surface binding peptide) [DenP32]” the value was 1.441; for “IPWWNIRAPLNAGGG [Control, reference compound]”, 1.000; for “IYPNESMSTSNVRGPYHP (Synthetic oral-surface binding peptide) [DenP22]”, 1.420.
As for “KAPIANMLQPHSYQYSVA (Synthetic oral-surface binding peptide) [DenP18]”, the “O.D.450 (normalized)” value was 1.143.
“NGNNHTDIPNRSSYTGGSFA (Synthetic oral-surface binding peptide) [DenP1]”: the “O.D.450 (normalized)” value turned out to be 1.002.
Still for that read-out and setting: for “QAAQVHMMQHSRPTT (Synthetic oral-surface binding peptide) [DenP13]” the value was 0.845.
Same read-out and setting: under “QVPDYLSPTHQKKAFLEIPT (Synthetic oral-surface binding peptide) [DenP29]” stands 0.976; under “SEARARTFNDHTTPMPII (Synthetic oral-surface binding peptide) [DenP14]”, 2.498; under “SNATMYNIQSHSHHQ (Synthetic oral-surface binding peptide) [DenP24]”, 0.979.
Still for that read-out and setting: for “TMTNHVYNSYTEKHSSTHRS (Synthetic oral-surface binding peptide) [DenP2]” the value was 1.951.
For the sequence “TNDLHANPFTGTYIAPDPTS (Synthetic oral-surface binding peptide) [DenP30]”, the “O.D.450 (normalized)” value is listed as 1.082.
Still for that read-out and setting: for “TTGSSSQADTSASMSIVPAH (Synthetic oral-surface binding peptide) [DenP17]” the value was 0.971; for “TYQGVPSWPAVIDDAIRR (Synthetic oral-surface binding peptide) [DenP19]”, 1.052; for “VEPATKNMREARSSTQMRRI (Synthetic oral-surface binding peptide) [DenP4]”, 1.421.
As to “VNPNWVETQALHQPPGNT (Synthetic oral-surface binding peptide) [DenP20]”, the “O.D.450 (normalized)” value amounted to 1.298.
Still for that read-out and setting: for “YLLPKDQTTAPQVTPIVQHK (Synthetic oral-surface binding peptide) [DenP5]” the value was 1.087.

Another test has as its system pellicle-coated HAP disks. Put plainly: Phage ELISA on pellicle-coated HAP disks. It counts as binding, human. The conditions noted are these: over 10^10 pfu phage, A450. The text has this: A total of 20 selected phage candidates (Example 1) were used in a phage ELISA experiment. Purified phage lysates were used for binding to pellicle-coated HAP disks using an anti-M13 phage antibody conjugated to horseradish-peroxidase, followed by the addition of chromogenic agent TMB (3,3′,5,5′-tetramethylbenzidine), obtained from Pierce Biotechnology (Item #34021; Rockford, Ill.). The plates were read at A450 nm.
For each phage candidate to be tested, the pellicle-coated HAP disks (3 mm diameter) was incubated for 1 h at room temperature with 200 μL of blocking buffer, consisting of 2% non-fat dry milk (Schleicher & Schuell, Inc.) in TBS. […] The tube was rinsed 6 times with wash buffer consisting of TBST-0.05%. The wells were filled with 200 μL of TBST-0.5% containing 1 mg/mL BSA (bovine serum albumin) and then 10 μL (over 10^10 pfu) of purified phage stock was added. The samples were incubated at room temperature for 60 min with slow shaking. The non-binding phage were removed by washing 6 times with TBST-0.5%. […] The conjugate solution was removed and was washed 6 times with TBST-0.5%.
With “AHPESLGIKYALDGNSDPHA (Synthetic oral-surface binding peptide) [Pell 1]”, the O.D.450 is 0.739.
Same read-out and setting: under “ASVSNYPPIHHLATSNTTVN (Synthetic oral-surface binding peptide) [Pell 2]” stands 0.75; under “DECMEPLNAAHCWR (Synthetic oral-surface binding peptide) [Pell 3]”, 0.49; under “DECMHGSDVEFCTS (Synthetic oral-surface binding peptide) [Pell 4]”, 0.664.
Turning to “DLCSMQMMNTGCHY (Synthetic oral-surface binding peptide) [Pell 5]”, the O.D.450 is 0.83.
Still for that read-out and setting: under “DLCSSPSTWGSCIR (Synthetic oral-surface binding peptide) [Pell 6]” stands 0.735; under “DPNESNYENATTVSQPTRHL (Synthetic oral-surface binding peptide) [Pell 7]”, 0.831; under “EPTHPTMRAQMHQSLRSSSP (Synthetic oral-surface binding peptide) [Pell 8]”, 0.712.
On the same count and under the same terms, for “GNTDTTPPNAVMEPTVQHKW (Synthetic oral-surface binding peptide) [Pell 9]” the value was 0.755; for “NGPDMVQSVGKHKNS (Synthetic oral-surface binding peptide) [Pell 10]”, 0.729.
On the same count and under the same terms, for “NGPEVRQIPANFEKL (Synthetic oral-surface binding peptide) [Pell 11]” the value was 0.607; for “NNTSADNPPETDSKHHLSMS (Synthetic oral-surface binding peptide) [Pell 12]”, 0.521; for “NNTWPEGAGHTMPSTNIRQA (Synthetic oral-surface binding peptide) [Pell 13]”, 0.598.
In the case of “NPTATPHMKDPMHSNAHSSA (Synthetic oral-surface binding peptide) [Pell 14]”, the O.D.450 came to 0.7.
On the same count and under the same terms, for “NPTDHIPANSTNSRVSKGNT (Synthetic oral-surface binding peptide) [Pell 15]” the value was 0.567.
Still for that read-out and setting: under “NPTDSTHMMHARNHE (Synthetic oral-surface binding peptide) [Pell 16]” stands 0.578; under “QHCITERLHPPCTK (Synthetic oral-surface binding peptide) [Pell 17]”, 0.614.
Still for that read-out and setting: for “TPCAPASFNPHCSR (Synthetic oral-surface binding peptide) [Pell 18]” the value was 0.416; for “TPCATYPHFSGCRA (Synthetic oral-surface binding peptide) [Pell 19]”, 0.731.
The sequence “WCTDFCTRSTPTSTSRSTTS (Synthetic oral-surface binding peptide) [Pell 20]” yielded an O.D.450 of 0.715.
